Results taken from paper PMC11510191, “Exploring Benzo[h]chromene Derivatives as Agents against Protozoal and Mycobacterial Infections” (Pharmaceuticals, 2024).
In brackets after ≈: the same amount, converted by molar mass. Read-outs that look alike come from different tables or passages of the source.

Legend:
[1] = tested on: Leishmania infantum (L. i) promastigotes; assay: Leishmanicidal activity on L. infantum promastigotes (resazurin); conditions: Leishmania infantum, 48 h, read-out: Leishmanicidal Activity IC50—L. i
Procedure: (§1) The culture of L. braziliensis (MHOM/CO/88/UA301) and L. infantum (MCAN/ES/92/BCN83) was obtained from the Facultad de Farmacia, Universidad Complutense de Madrid, Spain.
(§2) The maintenance of the strains, the form of cultivation, and the isolation of shape promastigota followed the procedures described by Roldós et al. [8]. The promastigotes were grown at 22 °C in Schneider’s Drosophila medium supplemented with 20% FBS. The assay was performed using a modification of a previous method [47]. Promastigotes (2 × 10^6 parasites/well) were cultured in 96-well plastic plates. Compounds were dissolved in dimethylsulfoxide (DMSO). Different dilutions of the compounds up to a 200 µL final volume were added. After 48 h at 26 °C, 20 µL of 2 mM resazurin solution was added and the oxidation–reduction was quantified at 570 and 600 nm. The solution of resazurin was prepared at 2.5 mM in phosphate-buffered solution (PBS), pH 7.4, and filtered through 0.22 µM prior to use. All tests were carried out in triplicate. Resazurin sodium salt was obtained from Sigma–Aldrich (St. Louis, MO, USA) and stored at 4 °C protected from light. The efficacy of each compound was estimated by calculating the IC50 values.

[2] = Cytotoxicity on L929 fibroblasts (resazurin); conditions: mouse
T. cruzi epimastigotes = assay: Trypanocidal activity on T. cruzi epimastigotes (CL-B5 lacZ, CPRG); assay type: cell-based, Trypanosoma cruzi clone CL-B5; conditions: for IC50: Trypanosoma cruzi, 72 h, epimastigotes, read-out: Trypanocidal Activity IC50 T. cruzi
Procedure: For in vitro studies of T. cruzi. the clone CL-B5 was used. Parasites were stably transfected with the Escherichia coli β-galactosidase gene (lacZ), provided by Facultad de Farmacia (Universidad Complutense de Madrid). Epimastigotes were grown at 28 °C in liver infusion tryptose broth (Difco, Detroit, MI, USA) with 10% fetal bovine serum (FBS) (Gibco, Carlsbad, CA, USA), penicillin (Ern S.A., Barcelona, Spain), and streptomycin (Reig Jofré S.A., Barcelona. Spain), as described previously, and harvested during the exponential growth phase. Briefly, the screening assay was performed in 96-well microplates (Sarstedt, Inc., Newton, NC, USA) with cultures that had not reached the stationary phase. Briefly, epimastigotes were seeded at 2 × 10^5 parasites/mL in 200 µL growth media. The plates were then incubated with the respective compounds at 28 °C for 72 h. Afterwards, 50 µL of CPRG solution was added, resulting in a final concentration of 200 µM. The plates were incubated at 37 °C for an additional 4 h and then read at 595 nm. Each concentration was tested in triplicate. […] These values were calculated from the sigmoidal dose–response curve adjustment using the statistical software program Graph-Pad Prims 3.0. Benznidazole was used as a reference drug.

[3] = tested on: Leishmania brazilensis (L. b) promastigotes; assay: Leishmanicidal activity on L. braziliensis promastigotes (resazurin); conditions: Leishmania, 48 h, read-out: Leishmanicidal Activity IC50—L. b
Procedure: as §1, §2

[4] = tested on: M. intracellulare LIID-01; assay: MIC broth microdilution; assay type: cell-based; conditions: Mycobacterium intracellulare, LIID01
S. typhi (G−) = assay: MIC broth microdilution; assay type: cell-based; conditions: Salmonella enterica, 24 h
M. abscessus LIID-02 = assay: MIC broth microdilution; assay type: cell-based; conditions: Mycobacteroides abscessus, LIID02, 72 h
[5] = tested on: M. tuberculosis ATCC H37Rv; assay: MIC broth microdilution; assay type: cell-based; conditions: Mycobacterium tuberculosis
S. aureus (G+) = assay: MIC broth microdilution; assay type: cell-based; conditions: Staphylococcus aureus, 24 h
L. monocytogenes (G+) = assay: MIC broth microdilution; assay type: cell-based; conditions: Listeria monocytogenes, 24 h
L. innocua (G+) = assay: MIC broth microdilution; assay type: cell-based; conditions: Listeria innocua, 24 h
[6] = tested on: M. tuberculosis CIPTIR-F296; assay: MIC broth microdilution; assay type: cell-based; conditions: Mycobacterium tuberculosis, CIPTIRF296
E. faecalis (G+) = assay: MIC broth microdilution; assay type: cell-based; conditions: Enterococcus faecalis, 24 h
B. cereus (G+) = assay: MIC broth microdilution; assay type: cell-based; conditions: Bacillus cereus, 24 h
M. luteus (G+) = assay: MIC broth microdilution; assay type: cell-based; conditions: Micrococcus luteus, 24 h
M. abscessus LIID-01 = assay: MIC broth microdilution; assay type: cell-based; conditions: Mycobacteroides abscessus, LIID01, 72 h
E. coli (G−) = assay: MIC broth microdilution; assay type: cell-based; conditions: Escherichia coli, 24 h
[7] = tested on: M. intracellulare LIID-02; assay: MIC broth microdilution; assay type: cell-based; conditions: Mycobacterium intracellulare, LIID02
M. abscessus LIID-03 = assay: MIC broth microdilution; assay type: cell-based; conditions: Mycobacteroides abscessus, LIID03, 72 h
[8] = tested on: M. tuberculosis CIPTIR -D152; assay: MIC broth microdilution; assay type: cell-based; conditions: Mycobacterium tuberculosis
P. aeruginosa (G−) = assay: MIC broth microdilution; assay type: cell-based; conditions: Pseudomonas aeruginosa, 24 h
M. fortuitum LIID-01 = assay: MIC broth microdilution; assay type: cell-based; conditions: Mycolicibacterium fortuitum, LIID01, 72 h

CC1(C)C=Cc2c(OC(=O)CCCc3cn(-c4ccccc4)nn3)c(OC(=O)CCCc3cn(-c4ccccc4)nn3)c3ccccc3c2O1 [Compound 3a]
IC50 [1]: > 256 µM
CC50 at 24 h [2]: > 256 µM
IC50 (T. cruzi epimastigotes): > 256 µM
IC50 [3]: > 256 µM

COc1ccc(-n2cc(CCCC(=O)Oc3c4c(c5ccccc5c3OC(=O)CCCc3cn(-c5ccc(OC)cc5)nn3)OC(C)(C)C=C4)nn2)cc1 [Compound 3b]
IC50 [1]: > 256 µM
CC50 at 24 h [2]: > 256 µM
IC50 (T. cruzi epimastigotes): > 256 µM
IC50 [3]: > 256 µM

CC1(C)C=Cc2c(OC(=O)CCCc3cn(-c4ccc(Cl)cc4)nn3)c(OC(=O)CCCc3cn(-c4ccc(Cl)cc4)nn3)c3ccccc3c2O1 [Compound 3c]
IC50 [1]: > 256 µM
CC50 at 24 h [2]: > 256 µM
IC50 (T. cruzi epimastigotes): > 256 µM
IC50 [3]: > 256 µM

Cc1ccc(-n2cc(CCCC(=O)Oc3c4c(c5ccccc5c3OC(=O)CCCc3cn(-c5ccc(C)cc5)nn3)OC(C)(C)C=C4)nn2)cc1 [Compound 3d]
IC50 [1]: > 256 µM
CC50 at 24 h [2]: > 256 µM
IC50 (T. cruzi epimastigotes): > 256 µM
IC50 [3]: > 256 µM

CC(=O)O[C@@H]1[C@@H](OC(C)=O)[C@H](OC(C)=O)CO[C@H]1n1cc(CCCC(=O)Oc2c3c(c4ccccc4c2OC(=O)CCCc2cn([C@@H]4OC[C@@H](OC(C)=O)[C@H](OC(C)=O)[C@H]4OC(C)=O)nn2)OC(C)(C)C=C3)nn1 [Compound 3e]
MIC [4]: 50 µg/mL (≈ 48.4 µM)
MIC (S. typhi (G−)): 100 µg/mL (≈ 96.8 µM)
MIC (M. abscessus LIID-02): > 200 µg/mL
IC50 [1]: > 256 µM
MIC ([5]; H37RV): > 200 µg/mL
CC50 at 24 h [2]: > 256 µM
MIC (S. aureus (G+)): > 200 µg/mL
MIC (L. monocytogenes (G+)): > 200 µg/mL
MIC (L. innocua (G+)): > 200 µg/mL
IC50 (T. cruzi epimastigotes): > 256 µM
IC50 [3]: > 256 µM
MIC [6]: > 200 µg/mL
MIC (E. faecalis (G+)): > 200 µg/mL
MIC (B. cereus (G+)): > 200 µg/mL
MIC (M. luteus (G+)): > 200 µg/mL
MIC (M. abscessus LIID-01): > 200 µg/mL
MIC (E. coli (G−)): > 200 µg/mL
MIC [7]: > 200 µg/mL
MIC (M. abscessus LIID-03): > 200 µg/mL
MIC [8]: > 200 µg/mL
MIC (P. aeruginosa (G−)): > 200 µg/mL
MIC (M. fortuitum LIID-01): > 200 µg/mL

CC1(C)C=Cc2c(OC(=O)CCCc3cn(-c4cccc(Cl)c4)nn3)c(OC(=O)CCCc3cn(-c4cccc(Cl)c4)nn3)c3ccccc3c2O1 [Compound 3g]
IC50 [1]: > 256 µM
CC50 at 24 h [2]: > 384 µM
Selectivity Index L929/ T. cruzi (T. cruzi epimastigotes; SI = CC50 L929/IC50 parasites): >3
IC50 (T. cruzi epimastigotes): 146 µM
IC50 [3]: > 256 µM

CC1(C)C=Cc2c(OC(=O)CCCc3cn(Cc4ccc(Br)cc4)nn3)c(OC(=O)CCCc3cn(Cc4ccc(Br)cc4)nn3)c3ccccc3c2O1 [Compound 3i]
IC50 [1]: > 256 µM
CC50 at 24 h [2]: > 256 µM
IC50 (T. cruzi epimastigotes): > 256 µM
IC50 [3]: > 256 µM

CNC(C)C1CCC(N)C(OC2C(N)CC(N)C(OC3OCC(C)(O)C(NC)C3O)C2O)O1 (centres unmarked) [Gentamicin, reference compound]
MIC (S. typhi (G−)): 0.1 µg/mL (≈ 0.209 µM)
MIC (S. aureus (G+)): 0.1 µg/mL (≈ 0.209 µM)
MIC (L. monocytogenes (G+)): 0.2 µg/mL (≈ 0.419 µM)
MIC (L. innocua (G+)): 1.56 µg/mL (≈ 3.27 µM)
MIC (E. faecalis (G+)): 0.78 µg/mL (≈ 1.63 µM)
MIC (B. cereus (G+)): 0.78 µg/mL (≈ 1.63 µM)
MIC (M. luteus (G+)): 0.78 µg/mL (≈ 1.63 µM)
MIC (E. coli (G−)): 0.2 µg/mL (≈ 0.419 µM)
MIC (P. aeruginosa (G−)): 0.78 µg/mL (≈ 1.63 µM)

C[C@@H](O)[C@H]1C(=O)N2C(C(=O)O)=C(SCCN=CN)C[C@H]12 [Imipenem, reference compound]
MIC [4]: 1 µg/mL (≈ 3.34 µM)
MIC (M. abscessus LIID-02): 32 µg/mL (≈ 107 µM)
MIC (M. abscessus LIID-01): 32 µg/mL (≈ 107 µM)
MIC [7]: > 64 µg/mL
MIC (M. abscessus LIID-03): 8 µg/mL (≈ 26.7 µM)
MIC (M. fortuitum LIID-01): 4 µg/mL (≈ 13.4 µM)

CC(=O)NC[C@H]1CN(c2ccc(N3CCOCC3)c(F)c2)C(=O)O1 [Linezolid, reference compound]
MIC [4]: 2 µg/mL (≈ 5.93 µM)
MIC (M. abscessus LIID-02): 1 µg/mL (≈ 2.96 µM)
MIC (M. abscessus LIID-01): 1 µg/mL (≈ 2.96 µM)
MIC [7]: 8 µg/mL (≈ 23.7 µM)
MIC (M. abscessus LIID-03): 1 µg/mL (≈ 2.96 µM)
MIC (M. fortuitum LIID-01): 8 µg/mL (≈ 23.7 µM)

CO[C@H]1/C=C/O[C@@]2(C)Oc3c(C)c(O)c4c(O)c(c(/C=N/N5CCN(C)CC5)c(O)c4c3C2=O)NC(=O)/C(C)=C\C=C\[C@H](C)[C@H](O)[C@@H](C)[C@@H](O)[C@@H](C)[C@H](OC(C)=O)[C@@H]1C [Rifampicin, reference compound]
MIC ([5]; M. tuberculosis ATCC H37Rv, read-out: MIC): 2 µg/mL (≈ 2.43 µM)
MIC ([6]; M. tuberculosis CIPTIR-F296, read-out: MIC): 1 µg/mL (≈ 1.22 µM)
MIC ([8]; M. tuberculosis CIPTIR -D152, read-out: MIC): 32 µg/mL (≈ 38.9 µM)
